Key:
[1] = Physical-chemical properties of the LNP / tLNP: hydrodynamic diameter and PDI by dynamic light scattering; assay type: physicochemical; conditions: for PDI* (polydispersity index) / Hydrodynamic diameter (nm): LNP whose PEG-lipid is the labelled compound, mCherry mRNA, N/P 6; for PDI* (polydispersity index): 50:10:38.5:1.5 mol/mol; for Hydrodynamic diameter (nm): ionizable cationic lipid/DSPC/cholesterol/PEG-lipid 50:10:38.5:1.5 mol/mol, pH 7.4 Tris buffer, 25° C.; for formation of LNP encapsulating mRNA: PEG-lipid at 1.5 mol % in LNP with mCherry mRNA
Procedure: The ability to incorporate various of the disclosed PEG-lipids into LNP encapsulating mRNA was assessed using mRNA encoding the fluorescent marker mCherry.
(§1) The mRNA was encapsulated in LNP using a self-assembly process in which an aqueous solution of mRNA at pH=3.5 is rapidly mixed with a solution of lipids dissolved in ethanol, then followed by stepwise phosphate and Tris buffer dilution and tangential flow filtration (TFF) purification. LNP composition in this study was: an ionizable cationic lipid of Formula 1a as shown below/distearoylphosphatidylcholine/cholesterol/PEG-lipid (50:10:38.5:1.5 mol/mol) and were encapsulated at an N/P ratio (the ratio of positively-chargeable lipid amine (N=nitrogen) groups to negatively-charged nucleic acid phosphate (P) groups) at 6. LNPs were frozen at −80° C. LNP were made in which the PEG-lipid was DMG-PEG2000, as a benchmark, or one of Compounds VI-7, VI-8, B-46, or B-47. The diameter of the nanoparticles was measured by dynamic light scattering using a Zetasizer Nano ZS (Malvern Instruments Ltd., Malvern, UK) instrument. Size measurement was carried out in pH 7.4 Tris buffer at 25° C. in relevant disposable capillary cells. A non-invasive back scatter system (NIBS) with a scattering angle of 173° was used for size measurements.
CleanCap® mCherry 5-methoxyuridine (5moU) mRNA (L-7203) was purchased from TriLink. mRNA was encapsulated in LNP using a self-assembly process in which an aqueous solution of mRNA at pH=3.5 is rapidly mixed with a solution of lipids dissolved in ethanol, then followed by stepwise phosphate and Tris buffer dilution and TFF purification. LNP composition in this study was: an ionizable cationic lipid as shown in Example 42/distearoylphosphatidylcholine/cholesterol/DMG-PEG 2000/functionalized PEG-lipid (50:10:38.5:1.4:0.1 mol/mol) and were encapsulated at an N/P ratio (the ratio of positively-chargeable […] amine (N=nitrogen) groups to negatively-charged nucleic acid phosphate (P) groups) at 6. The hydrodynamic diameter of the nanoparticles was measured by dynamic light scattering using a Zetasizer Nano ZS (Malvern Instruments Ltd., Malvern, UK) instrument.
The particle size (hydrodynamic diameter) and polydispersity index of the targeted lipid nanoparticles were determined using dynamic light scattering (DLS) on a Malvern Zetasizer Nano ZS (Malvern Instruments, Worcestershire, UK). Size measurement was carried out in pH 7.4 Tris buffer at 25° C. in relevant disposable capillary cells. A non-invasive back scatter system (NIBS) with a scattering angle of 173° was used for size measurements.

[2] = Encapsulation efficiency of mRNA in LNP / tLNP (RiboGreen RNA assay); assay type: physicochemical; conditions: LNP whose PEG-lipid is the labelled compound; 50:10:38.5:1.5 mol/mol, mCherry mRNA, N/P 6
From the text: as §1
mRNA content was determined using a Quant-iT™ RiboGreen RNA assay kit (Invitrogen™). Encapsulation efficiency was calculated by determining the unencapsulated mRNA content by measuring the fluorescence intensity (Fi) upon the addition of RiboGreen reagent to the LNP and comparing this value to the total fluorescence intensity (Ft) of the RNA content that is obtained upon lysis of the LNPs by 1% Triton X-100, where % encapsulation=(Ft−Fi)/Ft×100).

HEK293F cells = test: Transfection of HEK293F cells with mCherry mRNA encapsulated in LNP (flow cytometry, Aqua Live/Dead); assay type: cell-based, human; conditions: LNP comprising the labelled PEG-lipid; for expression level of mCherry (gMFI) compared with the benchmark LNP (DMG-PEG2000) / transfection at the lower doses: 24 hours; for expression level of mCherry (gMFI) compared with the benchmark LNP (DMG-PEG2000): FIG. 14C; for transfection at the lower doses: lower LNP doses
Procedure: The ability of the LNP formed in the preceding Example to transfect HEK293F cells, a human embryonic kidney cell-derived cell line, with the mCherry mRNA was assessed. Viral Production Cells (Gibco Catalog number: A35347), a derivative of the HEK 293F cell line adapted to a chemically-defined, serum-free and protein-free medium (LV-MAX™ Production Medium; Gibco Catalog number: A3583401) were grown in suspension, sedimented, resuspended at about 1×10^6 cells/mL, and 200 μL distributed to the wells of a 96-well U-bottom plate. Frozen LNP were thawed and diluted to 100 μg mRNA/mL with sterile water for injection. An appropriate volume of LNP was added to provide 0, 0.3, 0.6, or 2 μg RNA per well in duplicate and mixed by re-pipetting. The cells were then incubated for 1 hour at 37° C. in a CO2 incubator, washed three times with phosphate buffered saline, resuspended in 400 μL of medium in a deep-well 96-well plate, and incubated at 37° C. in a CO2 incubator on an orbital shaker at 900 RPM.
Twenty-four hours after addition of the LNP to the cells they were stained with Aqua Live/Dead (Thermo: catalog L34965) to assess cell viability. Transfection rate and expression level in the transfected cells was assessed by flow cytometry based on mCherry fluorescence.

## 1,2-dimyristoyl-glycero-3-methoxypolyethylene glycol-2000 [DMG-PEG2000, reference compound]
[1]
  PDI* (polydispersity index): 0.03
  Hydrodynamic diameter (nm): 82 nm
[2]
  Encapsulation Efficiency (%): 96%

## CCCCCCCCCCCCCCCCCC(=O)OCC(COC(=O)CCCCCCCCCCCCCCCCC)CC(=O)OCCOCCOCCOCCOCCOCCOCCOCCOCCOCCOCCOCCOCCOCCOCCOCCOCCOCCOCCOCCOCCOCCOCCOCCOCCOCCOCCOCCOCCOCCOCCOCCOCCOCCOCCOCCOCCOCCOCCOCCOCCOCCOCCOCCOCCOCc1ccc(OC)cc1 [Compound B-46]
[1]
  PDI* (polydispersity index): 0.04
  Hydrodynamic diameter (nm): 88 nm
  formation of LNP encapsulating mRNA: formed LNP
[2]
  Encapsulation Efficiency (%): 85%
HEK293F cells
  expression level of mCherry (gMFI) compared with the benchmark LNP (DMG-PEG2000): substantially higher expression levels
HEK293F cells; highest LNP dose tested, 24 hours after addition, mCherry fluorescence, FIG. 14B
  transfection of live cells (transfection rate): ~90%
HEK293F cells; FIG. 14B
  transfection at the lower doses: substantial levels of transfection

## CCCCCCCC(CCCCCCC)CCC(=O)OCC(COC(=O)CCC(CCCCCCC)CCCCCCC)CC(=O)OCCOCCOCCOCCOCCOCCOCCOCCOCCOCCOCCOCCOCCOCCOCCOCCOCCOCCOCCOCCOCCOCCOCCOCCOCCOCCOCCOCCOCCOCCOCCOCCOCCOCCOCCOCCOCCOCCOCCOCCOCCOCCOCCOCCOCCOCc1ccc(OC)cc1 [Compound B-47]
[1]
  PDI* (polydispersity index): 0.12
  Hydrodynamic diameter (nm): 98 nm
  formation of LNP encapsulating mRNA: formed LNP
[2]
  Encapsulation Efficiency (%): 68%
HEK293F cells
  expression level of mCherry (gMFI) compared with the benchmark LNP (DMG-PEG2000): performed comparably
HEK293F cells; FIG. 14B
  transfection at the lower doses: minimal transfection
